Measurements: patent publication US20260265687A1, “OCULAR ORGANOIDS” (KONINKLIJKE NEDERLANDSE AKADEMIE VAN WETENSCHAPPEN, priority 2023, published 2026)

How the values were obtained:
[1] = test system: human Adenovirus 8 (hAdV8); assay: hAdV8 infection of organoid-derived conjunctival ALI cultures, viral titers by qPCR and cytopathic effects; format: cell-based; conditions: 17-day-old conjunctival ALI cultures, up to 96 hours; for reversal of adenoviral (hAdV8) infection: 10 μM Acyclovir, 60 μM Cidofovir or 20 μM Nelfinavir
Source text: Adenoviruses are the leading cause of viral conjunctivitis. Yet, to date, no medication is available, partly because there is no model system for this type of ocular infection. An hAdV8 strain, isolated from a patient was provided by Dr. Nobuyo Yawata and Dr. Makoto Yawata (Kyushu University, Japan and NUS, Singapore) (see Yawata, N., and Yawata, M. 2022. Assessing the Response of Human NK Cell Subsets to Infection by Clinically Isolated Virus Strains. Methods Mol Biol 2463, 205-220. https://doi.org/10.1007/978-1-0716-2160-8_15). hAdV8 was added to 17-day-old conjunctival ALI cultures (FIG. 6E). Conjunctival ALI cultures were readily infected by hAdV8, as confirmed by the viral titre measured by qPCR (not shown). CPEs were visible starting from 48 hours after infection: infected cells darkened and were extruded from the epithelium. We then tested several antiviral drugs experimentally applied for adenoviral conjunctivitis (Acyclovir, Cidofovir and Nelfinavir) to test their efficacy in blocking the infection.
Human organoids (5-7 days after split) were harvested, trypsinized to single cells using 0.25% Trypsin/EDTA (ThermoFisher Scientific) for 5 minutes and 100,000 cells were seeded in 100 μL human expansion medium on 6.5 mm-wide transwells (Corning or Greiner). Human expansion medium was added to the lower compartment. After 3 to 4 days, when cells had reached confluency, medium from the upper compartment was removed to lift the cultures to air-liquid interface (ALI). The ALI cultures were maintained up to 22 days. The medium in the bottom compartment was changed every 3-4 days.
An hAdV8 strain isolated from a patient was used. Similar to HSV1 infection, hAdV8 at MOI 10 was added to the ALI culture in 50 μL PBS for 3 hours, before being washed away. Every 24 hours, the shed viruses were collected in 100 μL PBS and stored until further processing. If indicated, 10 μM Acyclovir (PHR1254, Sigma-Aldrich), 60 μM Cidofovir (C5874, Sigma-Aldrich) or 20 μM Nelfinavir (PZ0013, Sigma-Aldrich) was added to the bottom compartment after incubating with the virus. hAdV8-infected ALI cultures were kept for up to 4 days and, if required, fixed.
At the time of processing of the pellets for organoids and supernatants for ALI cultures, DNA was extracted using Zymogen Quick-DNA Microprep kit (ZY-D3020, Zymogen). DNA was systematically resuspended in 15 μL nuclease-free water (QIAGEN). Viral DNA was then quantified by qPCR as follow: 5 μL of the DNA extract was mixed together with 5 μL of SYBR green (Bio-Rad) containing HSV1 detection primers (HSV1-F: […] (SEQ ID NO: 13) and HSV1-R: […] (SEQ ID NO: 14)) or hAdV8 detection primers (hAdV8-F: […] (SEQ ID NO: 15) and hAdV8-R: […] (SEQ ID NO: 16). The SYBR green was mixed with 10 μM primer mix at a ratio 10:1. Technical duplicates were assessed by qPCR. The following program was used for viral DNA amplification: 95° C. for 2 minutes, followed by 40 cycles of 98° C. for 15 seconds, 60° C. for 15 seconds and 72° C. for 15 seconds. For quantifying the viral DNA content in ALI supernatants, we amplified 179 bp of HSV1-tdTomato genome using HSV1-F and HSV1-R and 1004 bp of the hAdV8 genome using hAdV8-F and hAdV8-R. We cloned both in a pJet vector (Thermo Fisher Scientific) and used it to make a standard curve ranging from 2.104 to 2.109 copies of viral genome according to Addgene instructions (https://www.addgene.org/protocols/aav-titration-qpcr-using-sybr-green-technology/). […]

[2] = test system: Herpes Simplex Virus 1 (HSV1); assay: HSV1 infection of organoid-derived conjunctival ALI cultures, viral titers by qPCR; format: cell-based; conditions: 10 μM Acyclovir in bottom compartment after virus incubation; 17-day-old human conjunctival ALI cultures; followed 96 hours
Description: To model HSV1 infection, we exposed the apical surface of fully differentiated 17-day-old ALI cultures for 3 hours to an HSV1 strain whose capsid protein VP26 was tagged with tdTomato (hereafter called HSV1-tdTomato, FIG. 6A). HSV1 titrer increased by 5 logs over the course of 96 hours after initial incubation with HSV1, implying a productive infection of the conjunctival ALI culture with HSV1 (FIG. 6B). In addition, we observed that the tdTomato signal increased over time in HSV1-infected ALI cultures when imaged using an Auto-EVOS microscope (Thermo Fisher Scientific) (Data not shown). […] Acyclovir, an inhibitor of HSV1 DNA polymerase, is commonly given to patients with HSV1-induced conjunctivitis. Indeed, the infection was blocked when ALI cultures were treated with 10 μM Acyclovir (FIG. 6A-B). Thus, organoid-derived ALI cultures support HSV1 infection and represent a human ocular surface model for HSV1 infection.
Human organoids (5-7 days after split) were harvested, trypsinized to single cells using 0.25% Trypsin/EDTA (ThermoFisher Scientific) for 5 minutes and 100,000 cells were seeded in 100 μL human expansion medium on 6.5 mm-wide transwells (Corning or Greiner). […]
Herpes Simplex Virus 1 containing endogenously tagged […] capsid protein with tdTomato (HSV1-tdTomato) was used. […] Viral titer quantification was performed as indicated below. […]

## Cc1c(O)cccc1C(=O)N[C@@H](CSc1ccccc1)[C@H](O)CN1C[C@H]2CCCC[C@H]2C[C@H]1C(=O)NC(C)(C)C [Nelfinavir]
[1]
  reversal of adenoviral (hAdV8) infection: only Cidofovir could reverse adenoviral infection

## Nc1nc2c(ncn2COCCO)c(=O)[nH]1 [Acyclovir]
[2]
  HSV1 infection (HSV1 titers detected by qPCR): blocked
[1]
  reversal of adenoviral (hAdV8) infection: only Cidofovir could reverse adenoviral infection

## Nc1ccn(C[C@@H](CO)OCP(=O)(O)O)c(=O)n1 [Cidofovir]
[1]
  reversal of adenoviral (hAdV8) infection: could reverse adenoviral infection
[1]; 60 μM Cidofovir
  cytopathic effects (CPEs) after hAdV8 infection: absence
  hAdV8 viral titre (qPCR): decrease
